One experiment has as its target T1, Mouse SSAO/VAP-1 (Mus musculus, UniProt O70423).
T1 construct: Adipocytes were used as an SSAO source either as adherent cells or as a homogenate; endogenous in cells; host or cells: 3T3-L1 murine fibroblasts (ATCC) differentiated into adipocytes
T1 sequence (O70423 1-765): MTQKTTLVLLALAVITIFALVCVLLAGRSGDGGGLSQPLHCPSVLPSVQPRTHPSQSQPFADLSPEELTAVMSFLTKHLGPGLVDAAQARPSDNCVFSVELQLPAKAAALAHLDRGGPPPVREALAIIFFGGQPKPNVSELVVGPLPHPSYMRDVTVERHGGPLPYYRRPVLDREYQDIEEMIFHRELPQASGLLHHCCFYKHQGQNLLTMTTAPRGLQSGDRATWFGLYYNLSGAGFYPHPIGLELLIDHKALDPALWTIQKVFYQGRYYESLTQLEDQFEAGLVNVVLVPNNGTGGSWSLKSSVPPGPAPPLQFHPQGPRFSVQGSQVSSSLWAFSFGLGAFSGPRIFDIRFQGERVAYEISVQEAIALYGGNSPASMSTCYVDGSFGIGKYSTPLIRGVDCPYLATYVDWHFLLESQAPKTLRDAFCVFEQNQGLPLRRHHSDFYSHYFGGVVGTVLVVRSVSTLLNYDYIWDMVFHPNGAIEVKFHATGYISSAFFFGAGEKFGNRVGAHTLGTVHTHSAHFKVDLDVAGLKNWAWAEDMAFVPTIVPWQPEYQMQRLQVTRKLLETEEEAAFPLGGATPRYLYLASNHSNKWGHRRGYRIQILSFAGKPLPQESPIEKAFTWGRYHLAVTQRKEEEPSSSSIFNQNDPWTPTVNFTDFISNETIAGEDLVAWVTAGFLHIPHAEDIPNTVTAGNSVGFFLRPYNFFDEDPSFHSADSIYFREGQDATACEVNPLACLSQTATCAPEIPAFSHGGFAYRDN
As to the kind of experiment: Inhibition of amine oxidase activity of mouse SSAO/VAP-1 (3T3-L1 adipocytes, Amplex Red). Particulars: 3T3-L1 adipocyte SSAO, 40 μM benzylamine. Format: biochemical. An excerpt: 3T3-L1 Murine fibroblasts were purchased from the American Type Culture Collection (ATCC, Rockville, Md.). Dulbecco's Modified Eagle Medium (DMEM) and fetal calf serum (FCS), antibiotics and Amplex® Red were obtained from Invitrogen (Carlsbad, Calif.). Tissue culture plastics and black clear-bottom 96 well plates were from BD Falcon (Bedford, Mass.). Bicinchoninic acid (BCA) reagent was from Pierce (Rockford, Ill.). All other materials were obtained from Sigma (St. Louis, Mo.).
3T3-L1 Fibroblasts were cultured in DMEM supplemented with 10% heat-inactivated FCS, 2 mM L-glutamine, 100 U/L penicillin and 100 μg/L streptomycin at 37° C. in 5% CO2. For differentiation into adipocytes, fibroblasts were cultured in DMEM with FCS for 1 or 2 days postconfluence, after which the cells were cultured for 3 days in DMEM containing 10% FCS, 350 nM insulin, 0.5 mM 3-isobutyl-1-methylxanthine, 250 nM dexamethasone, and 400 nM biotin and for 3 days in DMEM containing 10% FCS and 350 nM insulin. After differentiation, adipocytes were maintained in DMEM supplemented with 10% FCS. Adipocytes were used for experiments 8 to 11 days after the onset of differentiation, and the medium was renewed 2 or 3 days prior to each experiment. For culturing in black clear-bottom 96-well plates, cells were seeded at a 1:1 cell surface ratio, and differentiation was initiated 4 days postseeding. Cells were used between days 6-12 post-differentiation and between passages 7 and 20. Adipocytes were used as an SSAO source either as adherent cells or as a homogenate.
To prepare homogenate, 10 cm dishes of adipocytes were washed with HES buffer (20 mM HEPES, 1 mM EDTA, 250 mM sucrose, pH 7.4) and scraped in HES buffer containing 10 μg/mL leupeptin, 10 μM pepstatin and 1 mM PMSF. Cells were lysed by passage through a 23 G needle followed by passage through a 27 G needle. The lysate was spun at 500 g for 5 min and fat was removed. Protein concentration of the supernatant was measured using a BCA assay according to the manufacturer's instructions. The homogenate was stored at −80° C. until needed.
To measure the SSAO activity, adipocyte homogenate (0.5 mg/mL) or adipocytes (adhering cells) containing 0.5 mM pargyline, or purified human SSAO was incubated in 0.1 M sodium phosphate buffer pH 7.4 with varying concentrations of test compounds for 30 min at 37° C. The homogenate was then incubated at 37° C. with 60 μM Amplex® Red, 0.75 U/mL HRP and 40 μM benzylamine (mouse SSAO) or 300 μM benzylamine (human SSAO) and the formation of resorufin was measured (excitation range 530-560 nm and emission at 590 nm) every 10 min in either a Tecan Infinite 200 or a BMG plate reader. The IC50 values were estimated using Graphpad Prism software. The IC50 is an estimation of the concentration of the test compound to inhibit the amine oxidase activity of SSAO/VAP-1 by 50%. The IC50 values of certain invention compounds are included in Table 1.

For another experiment, the target named is T2, Human MAO-B (Homo sapiens, UniProt P27338).
T2 sequence (P27338 1-520): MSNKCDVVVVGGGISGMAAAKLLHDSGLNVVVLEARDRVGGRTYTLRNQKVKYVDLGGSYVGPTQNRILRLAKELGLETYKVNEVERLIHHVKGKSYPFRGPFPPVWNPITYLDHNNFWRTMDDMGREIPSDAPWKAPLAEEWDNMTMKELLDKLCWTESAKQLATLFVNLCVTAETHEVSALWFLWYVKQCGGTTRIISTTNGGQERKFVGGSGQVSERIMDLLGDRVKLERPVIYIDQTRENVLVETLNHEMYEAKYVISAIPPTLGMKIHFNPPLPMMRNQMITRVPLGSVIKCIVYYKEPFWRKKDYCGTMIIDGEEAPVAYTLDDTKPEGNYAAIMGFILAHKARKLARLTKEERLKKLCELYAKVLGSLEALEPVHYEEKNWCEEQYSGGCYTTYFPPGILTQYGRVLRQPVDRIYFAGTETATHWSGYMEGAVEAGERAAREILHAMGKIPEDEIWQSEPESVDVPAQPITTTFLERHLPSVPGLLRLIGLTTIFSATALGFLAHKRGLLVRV
Nature of the experiment: Inhibition of recombinant MAO-B (Amplex Red). Format: biochemical. As to conditions: 50 μM benzylamine. The protocol: Recombinant MAO-B was incubated in 0.1 M sodium phosphate buffer pH 7.4 with varying concentration of test compounds for 30 min at 37° C. The homogenate/protein was then incubated at 37° C. with […] Amplex® Red, 0.75 U/ml HRP and 40 μM benzylamine (mouse SSAO), 300 μM benzylamine (human SSAO), 100 μM tyramine (MAO-A) or 50 μM benzylamine (MAO-B) and the formation of resorufin was measured (excitation range 530-560 nm and emission at 590 nm) every 5 min in either a Tecan Infinite 200 or a BMG Fluorostar Optima platereader. IC50 were estimated using Graphpad Prism software.

Experiment [1] deals with LPS-induced pulmonary inflammation. Particulars: cited from earlier work.

Molecules are shown by their SMILES. Where a name gives a salt, the structure may show the parent alone.

As to `Cc1nc2cc(OC/C(F)=C\CN)ccc2s1.Cl` [(E)-3-Fluoro-4-(2-methylbenzo[d]thiazol-5-yloxy)but-2-en-1-amine hydrochloride], the IC50 against Mouse SSAO/VAP-1 (30 min at 37° C. preincubation) was under 1000 nM; at Human MAO-B (30 min at 37° C. preincubation), under 100000 nM.

As for `CS(=O)(=O)c1ccc(OC/C(F)=C\CN)cc1.Cl` [(E)-3-Fluoro-4-(4-(methylsulfonyl)phenoxy)but-2-en-1-amine hydrochloride], the IC50 against Mouse SSAO/VAP-1 (30 min at 37° C. preincubation) was under 1000 nM; at Human MAO-B (30 min at 37° C. preincubation), under 100000 nM.

On to `NC/C=C(/F)COc1ccc(C(=O)NC2CCCCC2)cc1` [(E)-4-(4-amino-2-fluorobut-2-enyloxy)-N-cyclohexylbenzamide hydrochloride], for which the IC50 on Mouse SSAO/VAP-1 (30 min at 37° C. preincubation) and on Human MAO-B (30 min at 37° C. preincubation) was under 1000 nM in each case.

`C[C@H](NS(=O)(=O)c1ccc(OC/C(F)=C\CN)cc1)c1ccccc1.Cl` [(S,E)-4-(4-Amino-2-fluorobut-2-enyloxy)-N-(1-phenylethyl)benzenesulfonamide]: the IC50 on Mouse SSAO/VAP-1 (30 min at 37° C. preincubation) and at Human MAO-B (30 min at 37° C. preincubation) was under 1000 nM each time.

Take `NC/C(=C/F)CCc1ccc(F)cc1` [Mofegiline, reference compound]: the IC50 at Mouse SSAO/VAP-1 was 1 nM; at Human MAO-B it was 4 nM. Further, the BAL cell counts result in experiment [1] (mouse overexpressing human SSAO/VAP-1, LPS) is recorded as “significantly reduces”. Also, the “LPS-induced increase in TNF-a” value in experiment [1] (mouse overexpressing human SSAO/VAP-1) is recorded as “significantly attentuates”.
